Results on 88 compounds are retold here after a melting point compilation (Tetko et al.; mined from patent text by program, amines drawn as free bases though some values may be those of a salt).

As usually defined, the melting point is the temperature, or range, at which the solid turns liquid.

The structures appear in SMILES notation.

The compound `COc1ncccc1-c1nc2c(N[C@H]3[C@@H](C(N)=O)[C@@H]4C=C[C@H]3C4)c(Br)cnc2[nH]1` gave a melting point of 201 °C.

As to `CCOC(=O)CC(CC(=O)OCC)N1CCC(Nc2ncc3ncnc(Nc4cccc(Br)c4)c3n2)CC1`, the melting point is 132 °C.

The compound `N=C(N)c1ccc2[nH]cc(CCN3C(=O)c4ccccc4C3=O)c2c1` had a melting point of 206 to 209 °C.

`CCc1cc(O)c2cccc(OC)c2n1`: the melting point was in the range of 190 to 192 °C.

The compound `Cc1cc(C)c2c(c1)OCC2=O` had a melting point of 55 to 60 °C.

With `O=C1NC(=O)C2(CCN(Cc3ccccc3)CC2)O1`, the melting point was 291 to 294 °C.

The compound `OC1CSC(Oc2cccnc2-c2ccncc2)C(O)C1O` (stereo not drawn) gave a melting point of 129 °C.

In turn, `COC(=O)COc1cc(C(=O)OC)nc2cc(Cl)ccc12` displayed a melting point of 154 °C.

Regarding `CC(=O)NCSC[C@H](NC(=O)OC(C)(C)C)C(=O)O`, the melting point lay within 110 to 112 °C.

On to `CCC(CC)Nc1nc(C)nc(N2CCc3cc(Cl)cc(Cl)c32)c1C#N`, for which the melting point is 163 to 165 °C.

`CC(C)CS(=O)(=O)c1ccc(F)c(C#Cc2cc(Cl)ccc2OCC(=O)O)c1` registered a melting point of 141 to 143 °C.

The compound `CCOC(=O)c1cn(-c2nncs2)c2cc(F)c(F)cc2c1=O` showed a melting point of 235 to 238 °C.

Turning to `O=C(O)c1cccc(-c2ccc(Cl)c3cc(Cc4ccc(F)c(F)c4)sc23)c1`, the melting point was in the range of 214 to 215 °C.

The compound `CN(C)C=C1CC(=O)Nc2ccccc2C1=O` showed a melting point of 203 to 205 °C.

Compound `Cc1cc(Cl)c2[nH]ncc2n1` registered a melting point of 218 °C.

In turn, `CN1C(=O)C(c2ccc(OC(F)F)cc2)(c2cccc(CCCCC#N)c2)N=C1N` (stereo not drawn) came in with a melting point of 65 °C.

The compound `O=C(NC(=O)c1c(F)cccc1F)Nc1cc(Cl)cc(C(F)(F)F)c1F` displayed a melting point of 187 to 189 °C.

The compound `N#CC1=C(c2cccs2)Nc2n[nH]cc2C1c1cccc2nonc12` (stereo not drawn) yielded a melting point of 230 °C.

Regarding `O=S(=O)(c1ccc(Nc2nccc(Nc3ccc(F)cc3)n2)cc1)N1CCC(C(O)c2ccncc2F)CC1` (stereo not drawn), the melting point was 140 °C.

As to `CCCc1cc2c(c(Br)c1O)CCO2`, the melting point lay in the range of 42 to 43 °C.

For `CCOc1nn(-c2ccccn2)cc1CCCOc1ccc(CCC(=O)O)cc1OC`, the melting point was 92 to 93 °C.

On to `CCCCn1c(=O)c2c(cnn2S(=O)(=O)CCC)n(CCCC)c1=O`, for which the melting point lay within 44 to 48 °C.

In turn, `COc1cc(Cc2cnc(N)nc2N)cc2c1OC(C)(C)C=C2C#CCO` displayed a melting point of 236 to 237 °C.

`CCC(CC)c1ccc(Cl)c2nc(Nc3c(C)noc3C)n(CCCCO)c12` had a melting point of 150 to 155 °C.

Compound `CCOC(=O)C(C)(C)Sc1ccc(OCCn2c(C)nc3ccccc3c2=O)cc1` came in with a melting point of 188 to 190 °C.

`Cc1cccc(-c2sc(N)nc2-c2ccnc(-c3ccc(CN(C)C)cc3)c2)n1` came in with a melting point of 210 °C.

The compound `O=C(Nc1nc(=O)[nH]s1)c1ccc2ccccc2c1` displayed a melting point of more than 250 °C.

For `N#CS/C=C\C(=O)N1CCCCC1`, the melting point lay within 88 to 90 °C.

As to `OCc1ccc(-c2ccc(-c3cn([C@H]4CN5CCC4CC5)nn3)cc2)cc1`, the melting point worked out at 250 °C.

For `COC(=O)c1cccc(S(=O)(=O)C2CCN(CCc3ccc(F)cc3F)CC2)c1`, the melting point lay within 116 to 117 °C.

Compound `Nc1ncccc1-c1nc2ccc(-c3cccnc3)nc2n1-c1ccc(NC(=O)c2ccccc2)cc1` came in with a melting point of 222 to 224 °C.

The compound `CCc1nc(C(=O)c2c(C)cc(C)cc2C)c(C=O)n1C(CC)CC` yielded a melting point of 119 to 120 °C.

Compound `COc1ccc2c(c1)CCC1C2CCC2(C)C(=NNS(=O)(=O)c3ccccc3)CCC12` (stereo not drawn) came in with a melting point of 183 to 185 °C.

Consider `CN1CCc2cc(NC(=O)/C=C/c3ccc(C(C)(C)C)cc3)ccc21`, for which the melting point stood at 194 °C.

Consider `CC(C)(C)OC(=O)COC(=O)CCc1c(OCC(=O)OC(C)(C)C)ccc2ccc(OCC(=O)OC(C)(C)C)cc12`, for which the melting point came out at 118 °C.

Consider `COC(=O)CCc1ccc(N2CCN(c3ccc(CN)cc3C)C2=O)cc1`, for which the melting point was more than 275 °C.

Take `Cc1cc(C)cc(Oc2cc(Br)cc(S(=O)(=O)N3CCN(C(=O)OC(C)(C)C)CC3)c2)c1`: the melting point was determined as 155 °C.

In turn, `Nc1ccc(-c2ccncc2)cc1` showed a melting point of 232 to 234 °C.

As for `O=C(O)CCc1cn(Cc2ccc(OCc3csc(-c4ccccc4)n3)cc2)nc1-c1ccccc1`, the melting point fell in the range of 132 to 133 °C.

Turning to `CCOC(=O)c1cc2c3ccccc3[nH]c(=S)n2n1`, the melting point was 242 to 243 °C.

Compound `Nc1ncc(-c2ccc([N+](=O)[O-])c(Cl)c2Cl)c(N)n1` had a melting point of 237 to 239 °C.

`CC(C)C[C@H](NC(=O)OC(C)(C)C)C(=O)N[C@H](C(=O)NN)[C@@H](C)O`: the melting point is 146 to 148 °C.

Consider `O=C(Nc1cccc2c(CO)c(Br)cnc12)c1c(Cl)cccc1Cl`, for which the melting point lay in the range of 246 to 247 °C.

Consider `Cc1ccc(C(c2ccc(C)cc2)C2CN(Cc3ccc(O)cc3)CCC2=O)cc1` (stereo not drawn), for which the melting point lay in the range of 156 to 157 °C.

Regarding `CCCCN(c1nc(NCCN)nc(N(CCCC)C2CC(C)(C)NC(C)(C)C2)n1)C1CC(C)(C)NC(C)(C)C1`, the melting point is 140 °C.

In turn, `CS(=O)(=O)Oc1ccc(C=O)cc1` gave a melting point of 61 to 63 °C.

`COc1ccc(OC)c2nc(Cl)c(CCCl)cc12` yielded a melting point of 108 to 110 °C.

With `CC1CC(=O)NN=C1c1ccc(NC(=O)OCC2CC2)cc1` (stereo not drawn), the melting point is 240 to 241 °C.

`NNc1cc2c(nn1)CCN(C(=O)c1ccccc1F)C2` displayed a melting point of 210 to 213 °C.

Consider `CC(Nc1ncnc2[nH]cnc12)c1oc2cccc(F)c2c(=O)c1-c1cccc(F)c1` (stereo not drawn), for which the melting point is 195 to 198 °C.

`Cc1cc([C@H]2[C@H](C(=O)Nc3ccc(F)c(F)c3)C2(C)C)ccc1S(N)(=O)=O` (relative stereo) displayed a melting point of 195 to 198 °C.

On to `COCc1cc(C(C)(C)C)cc(C(C)(C)C)c1O`, for which the melting point lay within 36 to 39 °C.

In turn, `Cc1ccncc1CN1CCC(=C2c3ccc(Cl)cc3CCc3cccnc32)CC1` returned a melting point of 95.5 to 101 °C.

Compound `Cc1oc(-c2ccc(Cl)cc2)cc1C(=O)NCc1ccc2cc(O)ccc2c1` had a melting point of 202 to 204 °C.

The compound `CC(C)NC(=O)C(F)(F)C(F)(F)F` had a melting point of 54 to 56 °C.

`CN(C)/C=N/c1nc(=O)n(C(=O)NCc2ccccc2)cc1F` showed a melting point of 147 to 150 °C.

Turning to `Nc1nc(Cl)c2cnn(Cc3ccccc3F)c2n1`, the melting point is 197 to 198 °C.

`CC1(C(=O)O)CCc2cc(O)c(C(C)(C)C)cc2O1` (stereo not drawn): the melting point fell in the range of 218 to 221 °C.

The compound `CCOC(=O)c1c(-c2ccncc2)[nH]c(-c2ccncc2)c1CC` came in with a melting point of 212 to 215 °C.

Regarding `O=C(O)c1ccc(F)c(C(F)(F)F)c1F`, the melting point was 108 to 110 °C.

In turn, `FC(F)(F)Sc1ccc(C=Cc2nc(COc3ccc(CCCCn4ccnn4)cc3)co2)cc1` returned a melting point of 144 to 145 °C.

`O=C(O)c1ccc(OCc2ccccc2)cc1OCc1ccccc1` showed a melting point of 123 to 124 °C.

`CCCCNC1=CC(=O)c2c(OC)ccc(OC)c2C1=O`: the melting point was 104 to 105 °C.

`NS(=O)(=O)c1ccc(-n2nc(C(F)(F)F)cc2-c2ccc(-c3ccco3)cc2)c(F)c1`: the melting point amounted to 174 °C.

In turn, `Fc1ccc(/C=C/c2nc(COc3cccc(CCCn4ccnn4)c3)co2)c(F)c1` came in with a melting point of 89 to 90 °C.

The compound `CCOC(=O)c1cc(NC(=O)C(Cc2ccc(Cl)c(Cl)c2)NC(=O)OC(C)(C)C)c[nH]1` (stereo not drawn) yielded a melting point of 175 to 185 °C.

Turning to `Cc1cc(C)c2cc(N)c(=O)[nH]c2n1`, the melting point lay within 238 to 240 °C.

As to `O=C(Nc1c([N+](=O)[O-])cnn1-c1c(Cl)cc(C(F)(F)F)c(Cl)c1Cl)C(F)F`, the melting point was 146 to 151 °C.

`CCn1c(=O)c2[nH]c(/C=C/c3ccc(OC)c(OC)c3Cl)nc2n(CC)c1=O` showed a melting point of 278 to 281 °C.

`CC1C(C#N)=C(N)OC2=C1C(=O)CC(c1cccc3ccccc13)C2` (stereo not drawn) registered a melting point of 204 to 206 °C.

For the compound `O=C(Cc1csc(-c2cnccn2)n1)NC1CCN(Cc2ccc(Cl)c(Cl)c2)CC1`, the melting point is 186 to 189 °C.

The compound `CCOC(=O)c1cnc2ccc(OCC)nc2c1Nc1ccc(OCC(O)CO)cc1` (stereo not drawn) returned a melting point of 143 to 145 °C.

Compound `CC(C)(O)CCOc1c(-c2ccc(S(C)(=O)=O)cc2)cnn(-c2ccc(Cl)c(Cl)c2)c1=O` had a melting point of 118 to 120 °C.

`CC(=O)N(C)c1ccc(CO)cc1`: the melting point was in the range of 83.5 to 85.5 °C.

As to `CC(CCCn1c(C)nc2c(N)nc3ccccc3c21)=NO`, the melting point lay within 264 to 266 °C.

The compound `O=C(O)c1cnncc1C(=O)c1cc(F)ccc1F` returned a melting point of 202 to 205 °C.

The compound `COc1cc2cc3c(Nc4ccc(Sc5nccn5C)c(Cl)c4)c(C#N)cnc3cc2cc1OCCN1CCN(C)CC1` displayed a melting point of 184 to 186 °C.

Consider `COc1cc2c(cc1C(F)(F)F)N(C(=O)Nc1ccc(OCc3ccncc3)nc1)CC2`, for which the melting point fell in the range of 187 to 189 °C.

Take `CCn1cc(C(=O)O)c(=O)c2cc(F)c(N3CCN(C)C(COC)C3)cc21` (stereo not drawn): the melting point lay in the range of 228 to 230 °C.

Regarding `CN(CC(=O)NO)C(=O)[C@H]1CCCC[C@H]1C(=O)O` (relative stereo), the melting point was 131 to 133 °C.

With `CC(=O)Nc1c(C#N)oc2ccccc12`, the melting point lay within 164 to 167 °C.

`CC(C)(C)OC(=O)NOC(=O)OC(C)(C)C` displayed a melting point of 52 °C.

The compound `C/C=C/Cn1c(Cc2cc(C)cc(C)c2)c(CC)c(=O)[nH]c1=O` had a melting point of 145 to 146 °C.

The compound `CCCCCCCNC(=O)Nc1ccc(CCc2cc(C(C)(C)C)c(O)c(C(C)(C)C)c2)cc1` had a melting point of 151 to 152 °C.

With `CCOC(=O)c1c(N)[nH]c2cc(OC)c(OC)cc12`, the melting point was in the range of 164 to 166 °C.

Compound `Nc1c(-c2cc(Cl)ccc2O)c2c(Cl)c(Cl)ccc2[nH]c1=O` registered a melting point of 263 to 265 °C.

Regarding `Cc1ccc2cccc(OCc3c(Cl)ccc(N(C)C(=O)CNC(=O)/C=C/c4ccc(NC(=O)c5cnccn5)nc4)c3Cl)c2n1`, the melting point lay within 220 to 231 °C.

Compound `CCc1c(CCNC(=O)CCC(C)CC(=O)NCCc2ccc(OC)c(OC)c2CC)ccc(OC)c1OC` (stereo not drawn) returned a melting point of 152 to 153 °C.
